From patent US5084469A, “New substituted benzothiazolinones” (Adir et Compagnie, priority 1989, dated 1992)

Assay: Analgesic activity (Siegmund test, phenyl-p-benzoquinone writhing)
Format: in vivo
Settings: Mus musculus; oral, mice, 1 hour before i.p. phenyl-p-benzoquinone; writhing counted 5th to 10th minute; read-out: ED50 (dose producing a 50% decrease in the number of writhing movements)
Procedure: The activity against pain was investigated in mice (20-25 g) according to a protocol derived from the technique described by SIEGMUND (SIEGMUND E.A., R.A., CADMUS & GOLU, J. Pharm. Exp. Ther. 119, […], 1954). The mice, randomized in batches of 12 animals, received the treatment orally (excipient for the controls) 1 hour before the intraperitoneal injection of a 0.02% aqueousalcoholic solution of phenyl-p-benzoquinone (Sigma). The writhing movements are counted between the 5th and 10th minute after injection.
The percentage activity obtained was evaluated for each dose (% decrease in the number of writhing movements in the treated animals relative to the controls). An ED50, the dose producing a 50% activity, was determined for each product.

## O=c1[nH]c2ccc(Cc3ccccc3)cc2s1 [Example 1, 6-Benzylbenzothiazolinone]
  ED50: ~2 mg/kg
